We go through three molecules from patent US4692525A, “Process for the separation of optical isomers of racemic 1-pyridyl-alkyl-4-aryl piperazines, and optical isomers obtained thereby” (Malesci S.p.A. Istituto Farmacobiologico, priority 1983, dated 1987).

Data set [1] has as its system Spontaneously hypertensive rats. Kind of data set: Hypotensive activity in vivo, spontaneously hypertensive rats, oral. Also on record: species or system rat. The conditions noted are these: for ED50: Rattus norvegicus, 30' after oral administration, obtained from graphs; for anti-hypertensive activity (in words): in vivo, comparison among racemate and isomers. On the procedure:
Spontaneously hypertensive rats were employed after they were fasted for 16 hours and tested for their systemic pressure by bloodless measurements before and after oral administration of the three compounds at the doses of 5-10-15 mg/kg.
The administration of all the compounds gives rise to a lowering of the dose-dependent hypertension, because the regression coefficients are always significative. The ED50 values in mg/kg, obtained from the graphs of the activities observed, are as follows;

Data set [2] is described as follows: Acute toxicity, i.p., mice (DL50). The format is in vivo. Conditions: mouse, in vivo, ip, i.p. injection, male Swiss mice; Wilcoxon method. The method, then: (§1) Male Swiss mice of 20-25 g body weight were treated by i.p. injection with rated concentrations of the three compounds. The values of DL50 and the relative confidence limits were calculated according to the method of Wilcoxon (J. Pharmac. Exp. Ther. 96, 99; 1949).

In data set [3] the test system is post-synaptic alpha-receptors. As to the kind of experiment: Alpha-blocking activity in vitro, isolated rabbit aorta, antagonism of nor-adrenaline response. The format is biochemical. Conditions: for pA2 (M ±DS): isolated rabbit aorta, versus nor-adrenaline. The method, then: The aorta isolated from a rabbit and prepared according to the procedure of Furchgott and Bhadrakom (J. Pharm. Exp. Ther. 108, 129; 1953) was tested with cumulative doses of nor-adrenaline till maximum responde obtainable in the absence and in the presence of the three compounds. The pA2 values were calculated according to Ariens and Van Rossum (Arch. Int. Pharmacodyn. 110, 275; 1957)
It is evident from the Table given above that the (+) derivative is 100 times as active as the (-) derivative and almost 3 times as active as the (r) compound in blocking the post-synaptic alpha-receptors response to nor-adrenaline.

For the next data set, the system named is Male Swiss mice. As to the kind of experiment: Acute toxicity, i.p., mice (DL50). The format is in vivo. On the procedure:
as §1

In general, ED50 refers to the midpoint of the dose-response relation. As usually defined, the LD50 is the dose at which mortality reaches 50%. Low values mean a more toxic substance, high ones a less toxic substance. Consider `CCOC(CN1CCN(c2ccccc2OC)CC1)c1cccnc1` (racemic) [(r), (±) 1-(2-ethoxy-2-ethoxy-2-(3'-pyridyl)ethyl)-4-(o-methoxyphenyl)piperazine], for which the ED50 turned out to be 7.8 mg/kg in data set [1] (0.5 h) and 18.8 mg/kg in data set [1] (1.5 h, 1 h). In data set [2], this molecule showed an LD50 of 75 mg/kg. Further, the “pA2 (M ±DS)” value in data set [3] was found to be 8.62 ± 0.11.
`CCOC(CN1CCN(c2ccccc2OC)CC1)c1cccnc1` (single isomer, unassigned; (+)) [(+), (+) 1-(2-ethoxy-2-(3'-pyridyl)ethyl)-4-(o-methoxyphenyl)piperazine]: the 50% effective dose (ED50) in data set [1] (0.5 h) is 5.5 mg/kg; in data set [1] (1.5 h, 1 h) it was 10.9 mg/kg. Moreover, the “anti-hypertensive activity (in words)” value in data set [1] is “most active form”; in data set [1] (listed as dextrorotatory isomer), “higher anti-hypertensive activity than the racemic compound”. Moreover, in the data set on Male Swiss mice (LD50 values or symptomatology), the “toxicity compared with racemic compound (in words)” value was “same toxicity of said racemic compound”. The molecule further registered a median lethal dose (LD50) in data set [2] of 65 mg/kg. Also, the “pA2 (M ±DS)” value in data set [3] is listed as 9.04 ± 0.03. Moreover, the “activity relative to the (-) derivative in blocking the post-synaptic alpha-receptors response to nor-adrenaline” value in data set [3] (versus (-) derivative) came to 100 times. Besides, the “activity relative to the (r) compound in blocking the post-synaptic alpha-receptors response to nor-adrenaline” value in data set [3] (versus (r) compound) is given as approximately 3 times.
On to `CCOC(CN1CCN(c2ccccc2OC)CC1)c1cccnc1` (single isomer, unassigned; (-)) [(-), (-) 1-(2-ethoxy-2-(3'-pyridyl)ethyl)-4-(o-methoxyphenyl)piperazine], for which the “anti-hypertensive activity (in words)” value in data set [1] is “quite low activity”; in data set [1] (listed as laevorotatory isomer), “almost inactive”. This molecule registered a DL50 in the data set with Male Swiss mice (i.p. injection, male Swiss mice, Wilcoxon method) of 68 mg/kg. The “pA2 (M ±DS)” value in data set [3] stood at 6.95 ± 0.05.
